Measured values: paper PMC3726002 (Bioorganic & medicinal chemistry letters, 2011)
pIC50: −log10 of the molar value.

How the values were obtained:
α9α10 nAChRs = α9α10 nAChRs (Rattus norvegicus, UniProt P43144+Q9JLB5); assay type: cell-based; settings: for inhibition of α9α10 ACh-gated currents at the probe concentration: 100 nM probe concentration, result in words; for selectivity for the α9α10 subtype vs. the α7 subtype: ratio of α7 to α9α10 IC50
α7 nAChR = α7 nAChR (Rattus norvegicus, UniProt Q05941); assay type: cell-based
α7 nAChR, sequence (Q05941 23-502): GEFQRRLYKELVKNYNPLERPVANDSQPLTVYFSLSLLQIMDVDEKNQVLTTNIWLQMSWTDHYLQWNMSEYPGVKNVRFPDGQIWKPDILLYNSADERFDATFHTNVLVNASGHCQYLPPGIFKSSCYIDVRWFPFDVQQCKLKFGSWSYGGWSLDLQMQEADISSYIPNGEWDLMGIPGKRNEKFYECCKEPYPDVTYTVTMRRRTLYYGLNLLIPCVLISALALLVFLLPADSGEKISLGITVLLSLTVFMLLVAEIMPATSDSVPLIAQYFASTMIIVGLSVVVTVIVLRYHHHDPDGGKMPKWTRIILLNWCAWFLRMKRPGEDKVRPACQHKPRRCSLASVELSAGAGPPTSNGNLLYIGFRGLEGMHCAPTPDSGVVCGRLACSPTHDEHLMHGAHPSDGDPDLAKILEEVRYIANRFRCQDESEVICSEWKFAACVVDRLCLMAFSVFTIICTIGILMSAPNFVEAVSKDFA

[1] = cited from earlier work
[2] = phase 2; cited from earlier work
[3] = cited from earlier work; for tolerance to the antihyperalgesic effect: rat, repeated dosing (7 days)
[4] = rat CCI pain model as printed; cited from earlier work
[5] = rat; cited from earlier work
GABAA receptors = assay: Interaction with GABAA receptors; settings: unpublished data
GABAB receptors = GABAB receptors (Homo sapiens, UniProt O75899+Q9UBS5); assay: Interaction with GABAB receptors; settings: unpublished data
GABAB receptors, sequence (Q9UBS5 15-961 limits assumed): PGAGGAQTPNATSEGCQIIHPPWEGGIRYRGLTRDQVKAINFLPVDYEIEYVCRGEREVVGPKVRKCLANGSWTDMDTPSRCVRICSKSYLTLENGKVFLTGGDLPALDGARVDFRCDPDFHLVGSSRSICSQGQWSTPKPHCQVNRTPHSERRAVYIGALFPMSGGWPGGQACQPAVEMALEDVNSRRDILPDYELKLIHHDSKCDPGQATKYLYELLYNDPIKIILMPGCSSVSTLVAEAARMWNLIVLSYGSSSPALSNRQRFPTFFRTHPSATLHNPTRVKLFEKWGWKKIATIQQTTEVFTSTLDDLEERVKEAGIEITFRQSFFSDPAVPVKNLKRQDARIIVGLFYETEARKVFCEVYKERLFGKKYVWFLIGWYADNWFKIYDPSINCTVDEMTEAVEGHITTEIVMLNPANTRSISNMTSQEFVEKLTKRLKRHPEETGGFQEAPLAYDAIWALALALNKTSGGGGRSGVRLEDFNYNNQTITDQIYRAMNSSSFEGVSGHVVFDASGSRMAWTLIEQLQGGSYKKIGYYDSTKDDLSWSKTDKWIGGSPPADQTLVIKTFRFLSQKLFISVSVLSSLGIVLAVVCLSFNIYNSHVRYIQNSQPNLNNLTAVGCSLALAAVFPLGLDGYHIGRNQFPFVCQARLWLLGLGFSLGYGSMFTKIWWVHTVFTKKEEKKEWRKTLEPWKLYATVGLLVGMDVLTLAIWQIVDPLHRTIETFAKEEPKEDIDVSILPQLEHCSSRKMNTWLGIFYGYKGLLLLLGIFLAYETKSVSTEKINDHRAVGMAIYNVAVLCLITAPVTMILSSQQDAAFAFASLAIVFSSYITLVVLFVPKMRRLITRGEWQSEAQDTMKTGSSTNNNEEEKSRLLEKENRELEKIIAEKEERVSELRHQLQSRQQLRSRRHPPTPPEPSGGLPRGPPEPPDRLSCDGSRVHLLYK
GABAB receptors, sequence (O75899 42-941): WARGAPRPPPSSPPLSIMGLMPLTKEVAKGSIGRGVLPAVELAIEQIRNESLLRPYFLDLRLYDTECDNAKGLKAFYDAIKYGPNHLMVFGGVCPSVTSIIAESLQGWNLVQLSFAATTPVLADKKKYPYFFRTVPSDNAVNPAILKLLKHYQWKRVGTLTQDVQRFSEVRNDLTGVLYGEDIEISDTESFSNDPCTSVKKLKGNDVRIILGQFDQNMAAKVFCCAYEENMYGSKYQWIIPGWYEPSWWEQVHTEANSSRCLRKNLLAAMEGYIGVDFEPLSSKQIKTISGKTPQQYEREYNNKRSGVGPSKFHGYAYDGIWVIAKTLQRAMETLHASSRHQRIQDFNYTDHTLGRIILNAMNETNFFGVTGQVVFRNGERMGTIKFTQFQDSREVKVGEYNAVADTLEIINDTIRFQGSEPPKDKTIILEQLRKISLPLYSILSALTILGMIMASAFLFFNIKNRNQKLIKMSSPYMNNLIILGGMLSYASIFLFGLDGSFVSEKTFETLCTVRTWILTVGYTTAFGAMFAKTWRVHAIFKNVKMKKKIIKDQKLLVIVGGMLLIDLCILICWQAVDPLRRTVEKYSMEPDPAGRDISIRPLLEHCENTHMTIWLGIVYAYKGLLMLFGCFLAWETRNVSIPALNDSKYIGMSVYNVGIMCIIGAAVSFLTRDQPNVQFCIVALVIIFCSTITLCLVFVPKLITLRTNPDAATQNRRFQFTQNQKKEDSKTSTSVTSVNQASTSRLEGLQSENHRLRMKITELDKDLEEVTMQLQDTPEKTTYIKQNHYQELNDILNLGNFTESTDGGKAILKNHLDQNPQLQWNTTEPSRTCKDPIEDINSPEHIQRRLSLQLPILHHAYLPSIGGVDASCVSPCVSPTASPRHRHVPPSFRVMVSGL

5HT3 receptors = biological target: T1, 5HT3 receptors (Homo sapiens, UniProt P46098); assay: Affinity for 5HT3 receptors; assay type: binding; settings: unpublished data
T1 sequence (P46098 24-478): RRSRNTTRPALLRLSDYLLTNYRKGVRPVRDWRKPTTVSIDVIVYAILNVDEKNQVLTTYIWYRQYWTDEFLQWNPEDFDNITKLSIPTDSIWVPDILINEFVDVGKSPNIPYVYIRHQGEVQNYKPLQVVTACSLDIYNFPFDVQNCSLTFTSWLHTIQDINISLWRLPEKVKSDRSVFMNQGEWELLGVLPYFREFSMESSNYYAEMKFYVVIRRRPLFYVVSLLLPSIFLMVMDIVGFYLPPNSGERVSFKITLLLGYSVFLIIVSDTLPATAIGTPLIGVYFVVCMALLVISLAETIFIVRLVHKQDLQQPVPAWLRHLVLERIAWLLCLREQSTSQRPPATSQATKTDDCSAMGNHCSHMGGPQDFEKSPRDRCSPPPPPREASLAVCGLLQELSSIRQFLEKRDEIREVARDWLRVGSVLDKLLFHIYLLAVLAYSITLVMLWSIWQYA

κ-opioid receptors = κ-opioid receptors (Homo sapiens, UniProt P41145); assay: Affinity for κ-opioid receptors; assay type: binding; settings: unpublished data
κ-opioid receptors, sequence (P41145 whole entry): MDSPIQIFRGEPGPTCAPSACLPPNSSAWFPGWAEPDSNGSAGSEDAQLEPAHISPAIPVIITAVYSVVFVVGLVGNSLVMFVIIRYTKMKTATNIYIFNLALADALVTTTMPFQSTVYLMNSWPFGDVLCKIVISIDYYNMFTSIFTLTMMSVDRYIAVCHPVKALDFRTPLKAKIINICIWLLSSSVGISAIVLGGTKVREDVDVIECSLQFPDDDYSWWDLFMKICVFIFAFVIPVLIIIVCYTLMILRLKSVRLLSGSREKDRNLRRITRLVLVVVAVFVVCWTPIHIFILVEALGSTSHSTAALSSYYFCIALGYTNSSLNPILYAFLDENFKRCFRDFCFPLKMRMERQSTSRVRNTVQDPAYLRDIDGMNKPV

α9α10 nAChRs, sequence (P43144 26-479): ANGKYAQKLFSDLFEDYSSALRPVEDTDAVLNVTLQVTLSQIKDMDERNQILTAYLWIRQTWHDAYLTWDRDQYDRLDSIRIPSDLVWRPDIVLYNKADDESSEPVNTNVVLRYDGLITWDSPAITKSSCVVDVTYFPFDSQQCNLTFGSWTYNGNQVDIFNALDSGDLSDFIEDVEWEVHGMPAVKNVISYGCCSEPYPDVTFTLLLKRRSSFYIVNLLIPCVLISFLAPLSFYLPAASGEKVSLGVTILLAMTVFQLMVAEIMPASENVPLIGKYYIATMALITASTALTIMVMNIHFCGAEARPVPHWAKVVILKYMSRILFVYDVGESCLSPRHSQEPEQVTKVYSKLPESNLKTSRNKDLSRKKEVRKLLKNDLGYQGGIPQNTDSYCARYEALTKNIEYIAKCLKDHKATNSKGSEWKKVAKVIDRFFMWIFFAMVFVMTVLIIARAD
α9α10 nAChRs, sequence (Q9JLB5 25-447): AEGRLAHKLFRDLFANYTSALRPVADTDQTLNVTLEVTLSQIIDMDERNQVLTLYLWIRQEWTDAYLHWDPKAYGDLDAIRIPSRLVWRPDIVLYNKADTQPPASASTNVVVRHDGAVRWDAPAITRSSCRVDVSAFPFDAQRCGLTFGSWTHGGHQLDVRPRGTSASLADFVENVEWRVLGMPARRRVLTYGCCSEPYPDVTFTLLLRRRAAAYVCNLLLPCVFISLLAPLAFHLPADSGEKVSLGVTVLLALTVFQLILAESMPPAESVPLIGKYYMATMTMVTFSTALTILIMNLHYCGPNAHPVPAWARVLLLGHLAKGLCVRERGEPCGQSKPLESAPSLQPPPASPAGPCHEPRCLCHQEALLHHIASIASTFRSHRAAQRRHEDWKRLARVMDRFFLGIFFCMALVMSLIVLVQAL

SMILES | inhibition of α9α10 ACh-gated currents at the probe concentration (α9α10 nAChRs) | pIC50 (α9α10 nAChRs) | pIC50 (α7 nAChR) | analgesic effect in the rat tail-flick test [1] | analgesic effect in the rat formalin model [2] | effect on mechanical hyperalgesia in the rat CCI model [3] | tolerance to the antihyperalgesic effect [3] | efficacious doses versus doses producing toxicity in the rotarod test [5] | other results
Cc1cc(C)c[n+](CCCCCc2cc(CCCCC[n+]3cc(C)cc(C)c3)c(CCCCC[n+]3cc(C)cc(C)c3)cc2CCCCC[n+]2cc(C)cc(C)c2)c1.[Br-].[Br-].[Br-].[Br-] [Compound 12b] | nearly complete inhibition |  |  |  |  |  |  |  | 
c1ccc(-c2ccc[n+](CCCCCc3cc(CCCCC[n+]4cccc(-c5ccccc5)c4)cc(CCCCC[n+]4cccc(-c5ccccc5)c4)c3)c2)cc1 [Compound 10e] |  | 8.43 | 7.04 |  |  |  |  |  | 
Cc1cc[n+](CC#Cc2ccc(-c3ccc(C#CC[n+]4ccc(C)c(C)c4)cc3)cc2)cc1C.[Br-].[Br-] [Compound 7a] |  |  |  | ineffective | demonstrated an analgesic effect | reversed mechanical hyperalgesia in a dose-related manner | not observed | efficacy was achieved at doses well below those that produced toxicity | selectivity for the α9α10 subtype vs. the α7 subtype (α9α10 nAChRs): 75 fold; alleviation of vincristin-induced neuropathic pain [4]: effective
C(#Cc1cc(C#CCCC[n+]2cccc(-c3ccccc3)c2)c(C#CCCC[n+]2cccc(-c3ccccc3)c2)cc1C#CCCC[n+]1cccc(-c2ccccc2)c1)CCC[n+]1cccc(-c2ccccc2)c1.[Br-].[Br-].[Br-].[Br-] [Compound 11e] | nearly complete inhibition | 9.25 | 8.06 | ineffective | demonstrated an analgesic effect | reversed mechanical hyperalgesia in a dose-related manner | not observed | efficacy was achieved at doses well below those that produced toxicity | interaction with GABAA receptors (GABAA receptors): does not interact; interaction with GABAB receptors (GABAB receptors): does not interact; affinity for 5HT3 receptors compared to α9α10 nAChRs (5HT3 receptors): several orders of magnitude lower affinity; affinity for κ-opioid receptors compared to α9α10 nAChRs (κ-opioid receptors): several orders of magnitude lower affinity
C(#Cc1cc(C#CCCC[n+]2cccc(-c3ccccc3)c2)cc(C#CCCC[n+]2cccc(-c3ccccc3)c2)c1)CCC[n+]1cccc(-c2ccccc2)c1 [Compound 9e] |  | 8.77 | 6.73 |  |  |  |  |  | 
c1ccc2c[n+](CCCCCc3cc(CCCCC[n+]4ccc5ccccc5c4)cc(CCCCC[n+]4ccc5ccccc5c4)c3)ccc2c1 [Compound 10d] |  | 8.32 | 6.77 |  |  |  |  |  | 
Cc1cc[n+](CCCc2ccc(-c3ccc(CCC[n+]4ccc(C)c(C)c4)cc3)cc2)cc1C.[Br-].[Br-] [Compound 8a] |  | 6.17 | 5.22 |  |  |  |  |  | selectivity for the α9α10 subtype vs. the α7 subtype (α9α10 nAChRs): 9 fold
Cc1cc(C)c[n+](CCCC#Cc2cc(C#CCCC[n+]3cc(C)cc(C)c3)c(C#CCCC[n+]3cc(C)cc(C)c3)cc2C#CCCC[n+]2cc(C)cc(C)c2)c1.[Br-].[Br-].[Br-].[Br-] [Compound 11b] | nearly complete inhibition |  |  |  |  |  |  |  | 
[Br-].[Br-].[Br-].c1ccc2c(c1)ccc[n+]2CCCCCc1cc(CCCCC[n+]2cccc3ccccc32)cc(CCCCC[n+]2cccc3ccccc32)c1 [Compound 10c] |  | 8.38 | 5.82 | ineffective | demonstrated an analgesic effect | reversed mechanical hyperalgesia in a dose-related manner | not observed | efficacy was achieved at doses well below those that produced toxicity | 
